Reference: patent US9695155B2, “Herbicidal substituted pyrimidinyloxy benzene compounds” (E. I. DU PONT DE NEMOURS AND COMPANY, priority 2013, dated 2017)

Experiments:
pigweed [1] = experiment: Test A postemergence; type: in vivo, Amaranthus retroflexus; conditions: Amaranthus retroflexus, post-emergence, 0 to 100 scale where 0 is no effect and 100 is complete control
In short: (§1)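 Visual injury scored 0–100 (100 = complete control) against untreated controls about 10 days after treatment in a greenhouse. Test chemicals, formulated with surfactant in non-phytotoxic solvent, were sprayed on soil preemergence or on 2-10 cm, one- to two-leaf plants postemergence.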

giant foxtail [2] = experiment: Test A postemergence; type: in vivo, Setaria faberii; conditions: Setaria faberi, post-emergence, 240 h, 0 to 100 scale where 0 is no effect and 100 is complete control
In short: as §1

velvetleaf = experiment: Test A preemergence; type: in vivo, Abutilon theophrasti
In short: as §1

galium = experiment: Test C postemergence; type: in vivo, Galium aparine; conditions: Galium, post-emergence
In short: (§2)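 Sown in loam/sand → sprayed pre-emergence; or grown to 1–4 leaves in peat mix → sprayed post-emergence. Same solvent/surfactant formulation both ways. Greenhouse 13–15 d. Score 0–100 visual.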

pigweed [3] = experiment: Test A preemergence; type: in vivo, Amaranthus retroflexus
In short: as §1

barnyardgrass = experiment: Test A preemergence; type: in vivo, Echinochloa crus-galli; conditions: Echinochloa crus-galli, pre-emergence, 240 h, 0 to 100 scale where 0 is no effect and 100 is complete control
In short: as §1

chickweed = experiment: Test C postemergence; type: in vivo, Stellaria media; conditions: Stellaria media, post-emergence
In short: as §2

giant foxtail [4] = experiment: Test C postemergence; type: in vivo, Setaria faberii; conditions: Setaria faberi, post-emergence
In short: as §2

johnsongrass = experiment: Test C postemergence; type: in vivo, Sorghum halepense
In short: as §2

large (Lg) crabgrass = experiment: Test A postemergence; type: in vivo, Digitaria sanguinalis; conditions: 0 to 100 scale where 0 is no effect and 100 is complete control
In short: as §1

kochia = experiment: Test C postemergence; type: in vivo, Kochia scoparia; conditions: Bassia scoparia, post-emergence
In short: as §2

morningglory = experiment: Test A postemergence; type: in vivo, Ipomoea spp.; conditions: 0 to 100 scale where 0 is no effect and 100 is complete control
In short: as §1

corn [5] = experiment: Test C postemergence; type: in vivo, Zea mays; conditions: Zea mays, post-emergence
In short: as §2

corn [6] = experiment: Test A postemergence; type: in vivo, Zea mays; conditions: Zea mays, post-emergence, 240 h, 0 to 100 scale where 0 is no effect and 100 is complete control
In short: as §1

Fc1cccc(Oc2ncc(Cl)cn2)c1-n1cc(Br)cn1 [Compound 178, 2-[2-(4-bromo-1H-pyrazol-1-yl)-3-fluorophenoxy]-5-chloropyrimidine] showed a pest or weed control at 500 g/ha (pigweed [1]; 500 g ai/ha, read-out: Plant response rating, Pigweed) of 100%, a pest or weed control at 125 g/ha (pigweed [1]; 240 h, 125 g ai/ha, read-out: Pigweed plant response rating) of 100% and a pest or weed control at 125 g/ha (giant foxtail [2]; 125 g ai/ha, read-out: Foxtail, Giant plant response rating) of 90%. For the same molecule, the pest or weed control at 500 g/ha (giant foxtail [2]; 500 g ai/ha, read-out: Plant response rating, Foxtail, Giant) was 100%, the “Velvetleaf plant response rating (0 to 100 scale)” value (velvetleaf; 125 g ai/ha) was 80 and the pest or weed control at 500 g/ha (velvetleaf; Abutilon theophrasti, pre-emergence, 240 h, 500 g ai/ha, 0 to 100 scale where 0 is no effect and 100 is complete control, read-out: Velvetleaf plant response rating) was 100%. For the same molecule, the pest or weed control at 16 g/ha (galium; 16 g ai/ha, postemergence, 0 is no effect, 100 is complete control, read-out: Plant response rating (0 to 100), Galium) was 80%, the pest or weed control at 31 g/ha (galium; 31 g ai/ha, postemergence, visual rating, scale 0 to 100 (0 no effect, 100 complete control), 13 to 15 days, read-out: Galium plant response rating) was 75% and the pest or weed control at 125 g/ha (galium; 125 g ai/ha, postemergence, visual rating, scale 0 to 100 (0 no effect, 100 complete control), read-out: Plant response rating, Galium) was 98%. For the same molecule, the pest or weed control at 62 g/ha (galium; Postemergence, 62 g ai/ha, scale 0 to 100 (0 no effect, 100 complete control), read-out: Plant response rating, Galium) was 85%, the “Pigweed plant response rating (0 to 100 scale)” value (pigweed [3]; 125 g ai/ha) was 100 and the pest or weed control at 500 g/ha (pigweed [3]; Amaranthus retroflexus, pre-emergence, 240 h, 500 g ai/ha, 0 to 100 scale where 0 is no effect and 100 is complete control, read-out: Pigweed plant response rating) was 100%. The pest or weed control at 125 g/ha (barnyardgrass; 125 g ai/ha, read-out: Plant response rating, Barnyardgrass) was 90%, the pest or weed control at 500 g/ha (barnyardgrass; 500 g ai/ha, read-out: Barnyardgrass plant response rating) was 100% and the pest or weed control at 16 g/ha (chickweed; 16 g ai/ha, postemergence, 0 is no effect, 100 is complete control, read-out: Plant response rating (0 to 100), Chickweed) was 40%. The pest or weed control at 31 g/ha (chickweed; 31 g ai/ha, postemergence, visual rating, scale 0 to 100 (0 no effect, 100 complete control), 13 to 15 days, read-out: Chickweed plant response rating) was 50%, the pest or weed control at 125 g/ha (chickweed; 125 g ai/ha, postemergence, visual rating, scale 0 to 100 (0 no effect, 100 complete control), read-out: Plant response rating, Chickweed) was 80% and the pest or weed control at 62 g/ha (chickweed; Postemergence, 62 g ai/ha, scale 0 to 100 (0 no effect, 100 complete control), read-out: Plant response rating, Chickweed) was 65%. It also gave a pest or weed control at 16 g/ha (giant foxtail [4]; 16 g ai/ha, postemergence, 0 is no effect, 100 is complete control, read-out: Plant response rating (0 to 100), Foxtail, Giant) of 5%, a pest or weed control at 31 g/ha (giant foxtail [4]; 31 g ai/ha, postemergence, visual rating, scale 0 to 100 (0 no effect, 100 complete control), 13 to 15 days, read-out: Foxtail, Giant plant response rating) of 5% and a pest or weed control at 125 g/ha (giant foxtail [4]; 125 g ai/ha, postemergence, visual rating, scale 0 to 100 (0 no effect, 100 complete control), read-out: Plant response rating, Foxtail, Giant) of 25%. The pest or weed control at 62 g/ha (giant foxtail [4]; Postemergence, 62 g ai/ha, scale 0 to 100 (0 no effect, 100 complete control), read-out: Plant response rating, Foxtail, Giant) was 5%, the “Johnsongrass plant response rating” value (johnsongrass; 31 g ai/ha, postemergence, visual rating, scale 0 to 100 (0 no effect, 100 complete control), 13 to 15 days) was 5 and the pest or weed control at 16 g/ha (johnsongrass; Sorghum halepense, post-emergence, 16 g ai/ha, postemergence, 0 is no effect, 100 is complete control, read-out: Plant response rating (0 to 100), Johnsongrass) was 0%. The pest or weed control at 125 g/ha (johnsongrass; Sorghum halepense, post-emergence, 125 g ai/ha, postemergence, visual rating, scale 0 to 100 (0 no effect, 100 complete control), read-out: Plant response rating, Johnsongrass) was 35%, the pest or weed control at 62 g/ha (johnsongrass; Sorghum halepense, post-emergence, Postemergence, 62 g ai/ha, scale 0 to 100 (0 no effect, 100 complete control), read-out: Plant response rating, Johnsongrass) was 15% and the “Crabgrass, Large plant response rating” value (large (Lg) crabgrass; 125 g ai/ha) was 90. For the same molecule, the pest or weed control at 500 g/ha (large (Lg) crabgrass; Digitaria sanguinalis, post-emergence, 240 h, 500 g ai/ha, read-out: Plant response rating, Crabgrass, Large) was 100%, the pest or weed control at 16 g/ha (kochia; 16 g ai/ha, postemergence, 0 is no effect, 100 is complete control, read-out: Plant response rating (0 to 100), Kochia) was 60% and the pest or weed control at 31 g/ha (kochia; 31 g ai/ha, postemergence, visual rating, scale 0 to 100 (0 no effect, 100 complete control), 13 to 15 days, read-out: Kochia plant response rating) was 90%. For the same molecule, the pest or weed control at 125 g/ha (kochia; 125 g ai/ha, postemergence, visual rating, scale 0 to 100 (0 no effect, 100 complete control), read-out: Plant response rating, Kochia) was 95%, the pest or weed control at 62 g/ha (kochia; Postemergence, 62 g ai/ha, scale 0 to 100 (0 no effect, 100 complete control), read-out: Plant response rating, Kochia) was 95% and the “Morningglory plant response rating” value (morningglory; 125 g ai/ha) was 70. It also gave a pest or weed control at 500 g/ha (morningglory; Ipomoea, post-emergence, 240 h, 500 g ai/ha, read-out: Plant response rating, Morningglory) of 100%, a plant injury at 16 g/ha (corn [5]; 16 g ai/ha, postemergence, 0 is no effect, 100 is complete control, read-out: Plant response rating (0 to 100), Corn) of 5% and a plant injury at 31 g/ha (corn [5]; 31 g ai/ha, postemergence, visual rating, scale 0 to 100 (0 no effect, 100 complete control), 13 to 15 days, read-out: Corn plant response rating) of 10%. The Corn plant response rating (crop injury, 0 = no effect, 100 = complete kill) at 125 g/ha (corn [5]; 125 g ai/ha, postemergence, visual rating, scale 0 to 100 (0 no effect, 100 complete control)) was 10%, the Corn plant response rating (crop injury, 0 = no effect, 100 = complete kill) at 62 g/ha (corn [5]; Postemergence, 62 g ai/ha, scale 0 to 100 (0 no effect, 100 complete control)) was 10% and the plant injury at 125 g/ha (corn [6]; 125 g ai/ha, read-out: Corn plant response rating) was 30%. For the same molecule, the Corn plant response rating (crop injury, 0 = no effect, 100 = complete kill) at 500 g/ha (corn [6]; 500 g ai/ha) was 70%.
